Reference: PMC6081404, “Active Transport of Peptides Across the Intact Human Tympanic Membrane” (Scientific Reports, 2018)

Tested on: rat TM fragment
Experiment: Integrity of the TM fragment and seal, trypan-blue dye transit into the lower chamber
Format: in vitro ADME
Settings: 0.5% trypan-blue in upper chamber, immediately and after 1–4 hours, visual and absorbance at 590 nm
Text: Rat TMs were interposed between the two chambers.

## Cc1cc(-c2ccc(/N=N/c3c(S(=O)(=O)O)cc4cc(S(=O)(=O)O)cc(N)c4c3O)c(C)c2)ccc1/N=N/c1c(S(=O)(=O)O)cc2cc(S(=O)(=O)O)cc(N)c2c1O [trypan-blue]
  dye transit into the lower chamber across an intact TM fragment: excluded from the lower chamber
